≈ marks a conversion by molar mass, not a printed value.
What was measured:
Assay type in all cases: physicochemical
[1] = Cyclodextrin solubilization screening of AOL; conditions: for CD/AOL molar ratio RM / CD/AOL weight ratio Rm: 25° C.; for solubility at 3 h / solubility at 20 h: 25 °C, thermodynamic from solid
Method: This assay evaluated the potential of different cyclodextrins to solubilize AOL. A solubilization screening is carried out with the four cyclodextrins (CD) selected from α-CD, γ-CD, HP-β-CD and SBE-β-CD.
Aqueous solutions containing 100 mM of cyclodextrin are prepared in pure water. An excess of AOL (approximately 5 mg/mL) is suspended in 2 mL of each of these cyclodextrin solutions. Each duplicate sample is shaken at 25° C. for 3 hours and 20 hours (vortex to 1400 rpm). Each sample is centrifuged (12,500 g) then filtered through a 0.45 μm membrane. The solubility of the AOL is quantified by HPLC as previously described (Example 2).

[2] = Co-solvent addition: AOL solubility; conditions: for solubility at 4 h: aqueous with cosolvent or surfactant or cyclodextrin, thermodynamic from solid
Method: SBE-β-CD compatible excipients, namely polyethylene glycol and polysorbate (Tween), were evaluated for their AOL aqueous solubilizing power. Screening was carried out in same conditions as that of solubilization screening by cyclodextrins (see Example 3).
Briefly, 20% (w/w) solutions of each excipient were prepared. An excess of AOL was added and the solutions were analyzed by HPLC after 4 hours of stirring.
The effect of the combination of SBE-β-CD and Tween 80 was measured in a comparative assay by solubilizing AOL in: (A) Tween 80, 10% (w/w); (B) SBE-β-CD 10% (w/w) (C) Tween 80 and SBE-β-CD 10% (w/w) each; (D) Tween 80 20% (w/w) (E) SBE-β-CD 20% (w/w); and (F) Tween 80 and SBE-β-CD 20% (w/w) each.
Further assays, resumed in Tables 7 and 8, confirmed that Tween 80/SBE-β-CD is a promising excipient mixture for the solubilization of AOL.

[3] = Incompatibility of AOL with lipid carriers (visual examination)
Method: 100 mg of AOL were successfully dissolved in 20 mL of polyglyceryl-3 dioleate (Plurol® Oleique). A homogenous vividly orange colored solution was obtained with less than 5 minutes of magnetic stirring.
The obtained solution turned greed with obvious aspect and odor having turned rancid.
100 mg of AOL were successfully dissolved in 20 mL of 2-[2,3-bis(2-hydroxyethoxy)propoxy]ethanol; hexadecanoic acid; octadecanoic acid (Labrafil® M1944). A homogenous orange colored solution was obtained with less than 5 minutes of magnetic stirring.
The obtained solution turned dark green.
A new solution of 5 mg/mL AOL in Labrafil® M1944 and stocked in a hermetically closed recipient.

[4] = Chemical stability of AOL in cyclodextrin solutions by HPLC; conditions: associated with HP-β-CD, conditions of Example 4
[5] = Optimal SBE-β-CD/AOL molar ratio for solubilization
Excerpt: Using an optimized AOL/SBE-β-CD molar ratio enabled the Applicant to overcome all the aforementioned shortcomings. Indeed, the obtained formulation can be injected without exceeding the daily cyclodextrin administration threshold, solubilizes AOL without presenting a prohibiting viscosity. The chemical stability of AOL was maintained by such a formulation. […] Without willing to be bound by a theory the complex association (interaction outside the cavity of the cyclodextrin) enhances its solubility without hindering its bioavailability when the formulation is administered to a subject in need thereof.

[6] = Cyclodextrin solubilization screening of AOL; conditions: water, 25 °C, thermodynamic from solid, read-out: intrinsic solubility in water

- CD/AOL molar ratio RM ([1]; HP-β-CD 100 mM, stirring 3 h): 218
- CD/AOL weight ratio Rm ([1]; HP-β-CD 100 mM, stirring 3 h): 1270
- CD/AOL molar ratio RM ([1]; HP-β-CD 100 mM, stirring 20 h): 252
- CD/AOL weight ratio Rm ([1]; HP-β-CD 100 mM, stirring 20 h): 1465
- CD/AOL molar ratio RM ([1]; SBE-β-CD 100 mM, stirring 3 h): 169
- CD/AOL weight ratio Rm ([1]; SBE-β-CD 100 mM, stirring 3 h): 1575
- CD/AOL molar ratio RM ([1]; SBE-β-CD 100 mM, stirring 20 h): 150
- CD/AOL weight ratio Rm ([1]; SBE-β-CD 100 mM, stirring 20 h): 1395
- solubility at 3 h ([1]; aqueous cyclodextrin solution, aqueous with cosolvent or surfactant or cyclodextrin, HP-β-CD 100 mM, stirring 3 h): 110 µg/mL (≈ 458 µM)
- solubility at 20 h ([1]; aqueous cyclodextrin solution, aqueous with cosolvent or surfactant or cyclodextrin, HP-β-CD 100 mM, stirring 20 h): 95.5 µg/mL (≈ 397 µM)
- solubility at 3 h ([1]; aqueous cyclodextrin solution, aqueous with cosolvent or surfactant or cyclodextrin, SBE-β-CD 100 mM, stirring 3 h): 142 µg/mL (≈ 592 µM)
- solubility at 20 h ([1]; aqueous cyclodextrin solution, aqueous with cosolvent or surfactant or cyclodextrin, SBE-β-CD 100 mM, stirring 20 h): 161 µg/mL (≈ 669 µM)
- solubility at 3 h ([1]; aqueous cyclodextrin solution, aqueous with cosolvent or surfactant or cyclodextrin, α-CD 100 mM, stirring 3 h): 8.83 µg/mL (≈ 36.7 µM)
- solubility at 20 h ([1]; aqueous cyclodextrin solution, aqueous with cosolvent or surfactant or cyclodextrin, α-CD 100 mM, stirring 20 h): 13.5 µg/mL (≈ 56.2 µM)
- solubility at 3 h ([1]; aqueous cyclodextrin solution, aqueous with cosolvent or surfactant or cyclodextrin, γ-CD 100 mM, stirring 3 h): 2.86 µg/mL (≈ 11.9 µM)
- solubility at 20 h ([1]; aqueous cyclodextrin solution, aqueous with cosolvent or surfactant or cyclodextrin, γ-CD 100 mM, stirring 20 h): 1.67 µg/mL (≈ 6.95 µM)
- solubility at 3 h ([1]; water, None-H2O, stirring 3 h): 0.22 µg/mL (≈ 0.915 µM)
- solubility at 20 h ([1]; water, None-H2O, stirring 20 h): 0.16 µg/mL (≈ 0.666 µM)
- CD/AOL molar ratio RM ([1]; α-CD 100 mM, stirring 3 h): 2721
- CD/AOL weight ratio Rm ([1]; α-CD 100 mM, stirring 3 h): 11010
- CD/AOL molar ratio RM ([1]; α-CD 100 mM, stirring 20 h): 1779
- CD/AOL weight ratio Rm ([1]; α-CD 100 mM, stirring 20 h): 7198
- CD/AOL molar ratio RM ([1]; γ-CD 100 mM, stirring 3 h): 8399
- CD/AOL weight ratio Rm ([1]; γ-CD 100 mM, stirring 3 h): 45316
- CD/AOL molar ratio RM ([1]; γ-CD 100 mM, stirring 20 h): 14405
- CD/AOL weight ratio Rm ([1]; γ-CD 100 mM, stirring 20 h): 77723
- chemical stability on storage ([2]; Tween 80 at 20% (w/w) aqueous media): chemical stability issues
- solubility at 4 h ([2]; aqueous HP-β-CD solution, HP-β-CD 20% (w/w), Cremophor 10% (w/w)): 545 µg/mL
- solubility at 4 h ([2]; aqueous HP-β-CD solution, HP-β-CD 20% (w/w), Cremophor 20% (w/w)): 814 µg/mL
- solubility at 4 h ([2]; aqueous HP-β-CD solution, HP-β-CD 20% (w/w), PVP 12PF 0.5% (w/w)): 296 µg/mL
- solubility at 4 h ([2]; aqueous HP-β-CD solution, HP-β-CD 20% (w/w), PVP 12PF 2.0% (w/w)): 291 µg/mL
- solubility at 4 h ([2]; aqueous HP-β-CD solution, HP-β-CD 20% (w/w), Tween 80 2% (w/w)): 329 µg/mL
- solubility at 4 h ([2]; aqueous HP-β-CD solution, HP-β-CD 20% (w/w), Tween 80 10% (w/w)): 396 µg/mL
- solubility at 4 h ([2]; aqueous HP-β-CD solution, HP-β-CD 20% (w/w), Tween 80 20% (w/w)): 660 µg/mL
- solubility at 4 h ([2]; aqueous HP-β-CD solution, HP-β-CD 20% (w/w), co-solvent 0% (w/w)): 283 µg/mL
- solubility at 4 h ([2]; aqueous HP-β-CD solution, HP-β-CD 30% (w/w), Cremophor 10% (w/w)): 642 µg/mL
- solubility at 4 h ([2]; aqueous HP-β-CD solution, HP-β-CD 30% (w/w), PVP 12PF 0.5% (w/w)): 532 µg/mL
- solubility at 4 h ([2]; aqueous HP-β-CD solution, HP-β-CD 30% (w/w), PVP 12PF 2.0% (w/w)): 517 µg/mL
- solubility at 4 h ([2]; aqueous HP-β-CD solution, HP-β-CD 30% (w/w), Tween 80 2% (w/w)): 426 µg/mL
- solubility at 4 h ([2]; aqueous HP-β-CD solution, HP-β-CD 30% (w/w), Tween 80 10% (w/w)): 439 µg/mL
- solubility at 4 h ([2]; aqueous HP-β-CD solution, HP-β-CD 30% (w/w), Tween 80 20% (w/w)): 1680 µg/mL
- solubility at 4 h ([2]; aqueous HP-β-CD solution, HP-β-CD 30% (w/w), co-solvent 0% (w/w)): 540 µg/mL
- solubility at 4 h ([2]; aqueous SBE-β-CD solution, SBE-β-CD 20% (w/w), Cremophor 10% (w/w)): 644 µg/mL
- solubility at 4 h ([2]; aqueous SBE-β-CD solution, SBE-β-CD 20% (w/w), PVP 12PF 0.5% (w/w)): 389 µg/mL
- solubility at 4 h ([2]; aqueous SBE-β-CD solution, SBE-β-CD 20% (w/w), PVP 12PF 2.0% (w/w)): 371 µg/mL
- solubility at 4 h ([2]; aqueous SBE-β-CD solution, SBE-β-CD 20% (w/w), Tween 80 2% (w/w)): 374 µg/mL
- solubility at 4 h ([2]; aqueous SBE-β-CD solution, SBE-β-CD 20% (w/w), Tween 80 10% (w/w)): 587 µg/mL
- solubility at 4 h ([2]; aqueous SBE-β-CD solution, SBE-β-CD 20% (w/w), Tween 80 20% (w/w)): 829 µg/mL
- solubility at 4 h ([2]; aqueous SBE-β-CD solution, SBE-β-CD 20% (w/w), co-solvent 0% (w/w)): 375 µg/mL
- solubility at 4 h ([2]; aqueous SBE-β-CD solution, SBE-β-CD 30% (w/w), Cremophor 10% (w/w)): 814 µg/mL
- solubility at 4 h ([2]; aqueous SBE-β-CD solution, SBE-β-CD 30% (w/w), PVP 12PF 0.5% (w/w)): 668 µg/mL
- solubility at 4 h ([2]; aqueous SBE-β-CD solution, SBE-β-CD 30% (w/w), PVP 12PF 2.0% (w/w)): 670 µg/mL
- solubility at 4 h ([2]; aqueous SBE-β-CD solution, SBE-β-CD 30% (w/w), Tween 80 2% (w/w)): 630 µg/mL
- solubility at 4 h ([2]; aqueous SBE-β-CD solution, SBE-β-CD 30% (w/w), Tween 80 10% (w/w)): 616 µg/mL
- solubility at 4 h ([2]; aqueous SBE-β-CD solution, SBE-β-CD 30% (w/w), Tween 80 20% (w/w)): 1280 µg/mL
- solubility at 4 h ([2]; aqueous SBE-β-CD solution, SBE-β-CD 30% (w/w), co-solvent 0% (w/w)): 685 µg/mL
- influence of PVP 12PF on solubility ([2]; cyclodextrin media): did not had any influence
- solubility in Tween 80 compared with SBE-β-CD solutions ([2]; same temperature and concentration of excipient): higher solubility in Tween 80
- visual examination of the solution ([3]; 5 mg/mL in Labrafil M1944, hermetically closed recipient, 24 hours at room temperature): same stability problem
- magnetic stirring time to homogenous solution ([3]; 100 mg in 20 mL Labrafil M1944): less than 5 minutes
- magnetic stirring time to homogenous solution ([3]; 100 mg in 20 mL polyglyceryl-3 dioleate (Plurol Oleique)): less than 5 minutes
- visual examination of the solution ([3]; Labrafil M1944, after 24 hours at room temperature): intense color change
- visual examination of the solution ([3]; Plurol Oleique, after 24 hours at room temperature): intense color change
- stability within lipid carriers ([3]; period of 24 hours, visual observation): unstable
- chemical stability (HPLC impurities) [4]: chemical instability
- SBE-β-CD/AOL molar ratio at which optimal solubilization was observed [5]: > 29
- solubility [6]: ~0.2 µg/mL (≈ 0.832 µM)
Structure (SMILES): COc1ccc(-c2cc(=S)ss2)cc1 [AOL, 5-(4-methoxyphenyl)-3H-1,2-dithiole-3-thione]

— patent US20210308173A1, “PHARMACEUTICAL COMPOSITION COMPRISING CYCLODEXTRIN COMPLEXES OF ANETHOLE TRITHIONE OR DERIVATIVES THEREOF” (priority 2018, published 2021)
